Emax and EC50 data for 19 molecules are collected here from patent US9796733B2, “Imidazo-pyrazine derivatives useful as soluble guanylate cyclase activators” (Merck Sharp & Dohme Corp., priority 2014, dated 2017).

In this experiment the target is T1, sGC α1/β1 heterodimer (Homo sapiens, UniProt Q02108+Q02153).
T1 construct: expressed in transfected cells; host or cells: CHO-K1 (clone #7, CHO-K1/sGC)
T1 sequence (Q02108 1-690): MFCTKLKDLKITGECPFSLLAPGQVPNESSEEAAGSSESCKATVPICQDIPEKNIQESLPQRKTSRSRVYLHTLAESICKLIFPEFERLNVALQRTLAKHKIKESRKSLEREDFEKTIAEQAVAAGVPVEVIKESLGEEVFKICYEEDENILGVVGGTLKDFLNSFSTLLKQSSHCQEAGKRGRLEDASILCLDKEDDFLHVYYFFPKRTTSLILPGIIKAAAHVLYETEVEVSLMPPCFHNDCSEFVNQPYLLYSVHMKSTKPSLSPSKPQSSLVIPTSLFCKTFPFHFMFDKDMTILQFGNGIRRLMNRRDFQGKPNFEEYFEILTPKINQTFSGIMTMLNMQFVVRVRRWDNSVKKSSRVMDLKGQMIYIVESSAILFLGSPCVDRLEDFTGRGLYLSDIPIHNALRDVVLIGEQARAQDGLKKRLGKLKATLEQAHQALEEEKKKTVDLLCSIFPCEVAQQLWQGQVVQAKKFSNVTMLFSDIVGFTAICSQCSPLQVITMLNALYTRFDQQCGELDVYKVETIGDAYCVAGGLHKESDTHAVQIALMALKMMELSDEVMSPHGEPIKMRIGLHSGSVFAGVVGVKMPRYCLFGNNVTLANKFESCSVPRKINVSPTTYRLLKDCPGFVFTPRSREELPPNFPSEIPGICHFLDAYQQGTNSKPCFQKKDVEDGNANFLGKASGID
T1 sequence (Q02153 1-619): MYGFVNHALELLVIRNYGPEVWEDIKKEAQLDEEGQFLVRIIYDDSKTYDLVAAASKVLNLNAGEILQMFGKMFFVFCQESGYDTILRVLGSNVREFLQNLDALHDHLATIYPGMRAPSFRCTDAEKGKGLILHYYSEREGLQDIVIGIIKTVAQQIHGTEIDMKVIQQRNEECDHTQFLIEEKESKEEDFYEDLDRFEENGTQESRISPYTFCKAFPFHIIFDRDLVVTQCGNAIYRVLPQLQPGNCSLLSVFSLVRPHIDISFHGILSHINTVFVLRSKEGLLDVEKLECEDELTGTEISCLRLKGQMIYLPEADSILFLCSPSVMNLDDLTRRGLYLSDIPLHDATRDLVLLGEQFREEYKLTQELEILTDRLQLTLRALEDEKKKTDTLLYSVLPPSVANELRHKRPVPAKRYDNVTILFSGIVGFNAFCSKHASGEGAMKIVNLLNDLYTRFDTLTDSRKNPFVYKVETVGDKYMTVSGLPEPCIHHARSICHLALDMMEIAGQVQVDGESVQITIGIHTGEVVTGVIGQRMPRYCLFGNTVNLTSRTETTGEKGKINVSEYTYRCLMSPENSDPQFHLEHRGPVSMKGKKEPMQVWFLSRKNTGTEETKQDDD
Description: Cell-based sGC functional assay (CASA assay): cGMP generation in CHO-K1/sGC cells, HTRF detection. The note with it: for Emax: CHO-K1, percent activation relative to standard Compound A in CHO-K1/sGC cells, read-out: % Act.; for EC50: inflection point (IP) of cGMP generation in CHO-K1/sGC cells, 4P fit, activity expressed as percentage of Compound A. In a few lines: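 Stable CHO-K1/sGC cells in EBSS buffer with 5 mM MgCl2, 0.05% BSA and 0.5 mM IBMX were incubated with compound (2.5% DMSO final) ±1 μM DETA-NO for 1 hr at 37° C. cGMP was measured by HTRF. Activation is expressed as % of reference HDA Compound A maximum, with IP and max fold induction from a 4P fit.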
Background: In TR-FRET formats the signal depends on donor and acceptor labels being close together.

The structures appear in SMILES notation.

For `COc1ccc(C2(C)C(=O)Nc3nc(-c4cn5ccnc5c(CCC(F)(F)F)n4)nc(N)c32)cc1` (centres unmarked) [Example 192B, 4-amino-5-(4-methoxyphenyl)-5-methyl-2-(8-(3,3,3-trifluoropropyl)imidazo[1,2-a]pyrazin-6-yl)-5H-pyrrolo[2,3-d]pyrimidin-6(7H)-one], the Emax is 168% and the 50% effective concentration (EC50) (in general, the concentration needed to bring the measured effect to its halfway point) was 923 nM.

Take `CC1(c2cc(F)cc(F)c2)C(=O)Nc2nc(-c3cn4ccnc4c(CCC(F)(F)F)n3)nc(N)c21` (centres unmarked) [Example 195B, 4-amino-5-(3,5-difluorophenyl)-5-methyl-2-(8-(3,3,3-trifluoropropyl)imidazo[1,2-a]pyrazin-6-yl)-5H-pyrrolo[2,3-d]pyrimidin-6(7H)-one]: the Emax was 114% and the half-maximal effective concentration (EC50) worked out at 312 nM.

Regarding `CC1(c2ccc(OC(F)(F)F)cc2)C(=O)Nc2nc(-c3cn4ccnc4c(CCC(F)(F)F)n3)nc(N)c21` (centres unmarked) [Example 196B, 4-amino-5-methyl-5-(4-(trifluoromethoxy)phenyl)-2-(8-(3,3,3-trifluoropropyl)imidazo[1,2-a]pyrazin-6-yl)-5H-pyrrolo[2,3-d]pyrimidin-6(7H)-one], the Emax was 106% and the response was half-maximal at 267 nM (EC50).

Consider `Nc1nc(-c2cn3ccnc3c(CCC(F)(F)F)n2)nc2c1C(c1ccc(Br)cc1)(C1CC1)C(=O)N2` (centres unmarked) [Example 200A, 4-amino-5-(4-bromophenyl)-5-cyclopropyl-2-(8-(3,3,3-trifluoropropyl)imidazo[1,2-a]pyrazin-6-yl)-5H-pyrrolo[2,3-d]pyrimidin-6(7H)-one], for which the Emax amounted to 96% and the EC50 was found to be 457 nM.

As to `CC(C)C1(c2ccc(Cl)cc2)C(=O)Nc2nc(-c3cn4ccnc4c(CCC(F)(F)F)n3)nc(N)c21` (centres unmarked) [Example 203B, 4-amino-5-(4-chlorophenyl)-5-isopropyl-2-(8-(3,3,3-trifluoropropyl)imidazo[1,2-a]pyrazin-6-yl)-5H-pyrrolo[2,3-d]pyrimidin-6(7H)-one], the Emax was found to be 115% and the EC50 stood at 1170 nM.

Take `CC1(c2ccc(Cl)c(F)c2)C(=O)Nc2nc(-c3cn4ccnc4c(CCCC(F)(F)F)n3)nc(N)c21` (centres unmarked) [Example 204B, 4-amino-5-(4-chloro-3-fluorophenyl)-5-methyl-2-(8-(4,4,4-trifluorobutyl)imidazo[1,2-a]pyrazin-6-yl)-5H-pyrrolo[2,3-d]pyrimidin-6(7H)-one]: the Emax was determined as 110% and it took 14 nM to reach a half-maximal effect (EC50).

As to `CC1(c2ccc(Cl)cc2)C(=O)Nc2nc(-c3cn4ccnc4c(CCCC(F)(F)F)n3)nc(N)c21` (centres unmarked) [Example 206A, 4-amino-5-(4-chlorophenyl)-5-methyl-2-(8-(4,4,4-trifluorobutyl)imidazo[1,2-a]pyrazin-6-yl)-5H-pyrrolo[2,3-d]pyrimidin-6(7H)-one], the Emax was 116% and a half-maximal response (EC50) required 21 nM.

Regarding `COc1ccc(C2(C)C(=O)Nc3nc(-c4cn5ccnc5c(CCCC(F)(F)F)n4)nc(N)c32)nc1` (centres unmarked) [Example 212B, 4-amino-5-(5-methoxypyridin-2-yl)-5-methyl-2-(8-(4,4,4-trifluorobutyl)imidazo[1,2-a]pyrazin-6-yl)-5H-pyrrolo[2,3-d]pyrimidin-6(7H)-one], the Emax was found to be 83% and a half-maximal effect (EC50) was put at 87 nM.

With `CCOc1ccc(C2(C)C(=O)Nc3nc(-c4cn5ccnc5c(CCC(F)(F)C(F)(F)F)n4)nc(N)c32)nc1` (centres unmarked) [Example 224A, 4-amino-5-(5-ethoxypyridin-2-yl)-5-methyl-2-(8-(3,3,4,4,4-pentafluorobutyl)imidazo [1,2-a]pyrazin-6-yl)-5H-pyrrolo[2,3-d]pyrimidin-6(7H)-one], the Emax was determined as 77% and the EC50 was found to be 153 nM.

For the molecule `CC1(c2ccccn2)C(=O)Nc2nc(-c3cn4ccnc4c(CCC(F)(F)C(F)(F)F)n3)nc(N)c21` (centres unmarked) [Example 226A, 4-amino-5-methyl-2-(8-(3,3,4,4,4-pentafluorobutyl)imidazo [1,2-a]pyrazin-6-yl)-5-(pyridin-2-yl)-5H-pyrrolo[2,3-d]pyrimidin-6(7H)-one], the Emax amounted to 124% and it took 287 nM to reach a half-maximal effect (EC50).

With `CC1(c2ccc(C3CC3)cn2)C(=O)Nc2nc(-c3cn4ccnc4c(CCC(F)(F)C(F)(F)F)n3)nc(N)c21` (centres unmarked) [Example 227B, 4-amino-5-(5-cyclopropylpyridin-2-yl)-5-methyl-2-(8-(3,3,4,4,4-pentafluorobutyl)imidazo [1,2-a]pyrazin-6-yl)-5H-pyrrolo[2,3-d]pyrimidin-6(7H)-one], the Emax amounted to 111% and the response was half-maximal at 249 nM (EC50).

Turning to `COc1ccc(C2(C)C(=O)Nc3nc(-c4cn5ccnc5c(CCC(F)(F)C(F)(F)F)n4)nc(N)c32)cc1` (centres unmarked) [Example 229B, 4-amino-5-(4-methoxyphenyl)-5-methyl-2-(8-(3,3,4,4,4-pentafluorobutyl)imidazo [1,2-a]pyrazin-6-yl)-5H-pyrrolo[2,3-d]pyrimidin-6(7H)-one], the Emax is 122% and the EC50 was 26 nM.

Consider `Cc1ccc(C2(C)C(=O)Nc3nc(-c4cn5ccnc5c(CCC(F)(F)C(F)(F)F)n4)nc(N)c32)cc1` (centres unmarked) [Example 230B, 4-amino-5-methyl-2-(8-(3,3,4,4,4-pentafluorobutyl)imidazo [1,2-a]pyrazin-6-yl)-5-(p-tolyl)-5H-pyrrolo[2,3-d]pyrimidin-6(7H)-one], for which the Emax stood at 117% and the midpoint of the response, the EC50, lay at 32 nM.

On to `COc1ccc(C2(C)C(=O)Nc3nc(-c4cn5ccnc5c(CCC(F)(F)C(F)(F)F)n4)nc(N)c32)cn1` (centres unmarked) [Example 236B, 4-amino-5-(6-methoxypyridin-3-yl)-5-methyl-2-(8-(3,3,4,4,4-pentafluorobutyl)imidazo [1,2-a]pyrazin-6-yl)-5H-pyrrolo[2,3-d]pyrimidin-6(7H)-one], for which the Emax was determined as 91% and the EC50 amounted to 35 nM.

On to `CC1(c2ccc(C(F)(F)F)cc2)C(=O)Nc2nc(-c3cn4ccnc4c(CCC(F)(F)C(F)(F)F)n3)nc(N)c21` (centres unmarked) [Example 237B, 4-amino-5-methyl-2-(8-(3,3,4,4,4-pentafluorobutyl)imidazo [1,2-a]pyrazin-6-yl)-5-(4-(trifluoromethyl)phenyl)-5H-pyrrolo[2,3-d]pyrimidin-6(7H)-one], for which the Emax was 119% and it took 53 nM to reach a half-maximal effect (EC50).

`CC(C)Oc1ccc(C2(C)C(=O)Nc3nc(-c4cn5ccnc5c(CCC(F)(F)C(F)(F)F)n4)nc(N)c32)cn1` (centres unmarked) [Example 241B, 4-amino-5-(6-isopropoxypyridin-3-yl)-5-methyl-2-(8-(3,3,4,4,4-pentafluorobutyl)imidazo [1,2-a]pyrazin-6-yl)-5H-pyrrolo[2,3-d]pyrimidin-6(7H)-one]: the Emax was 99% and it took 58 nM to reach a half-maximal effect (EC50).

`CCc1ccc(C2(C)C(=O)Nc3nc(-c4cn5ccnc5c(CCC(F)(F)C(F)(F)F)n4)nc(N)c32)nc1` (centres unmarked) [Example 242B, 4-amino-5-(5-ethylpyridin-2-yl)-5-methyl-2-(8-(3,3,4,4,4-pentafluorobutyl)imidazo [1,2-a]pyrazin-6-yl)-5H-pyrrolo[2,3-d]pyrimidin-6(7H)-one]: the Emax stood at 133% and the concentration giving a half-maximal response (EC50) amounted to 127 nM.

Take `COc1ccc(C2(C)C(=O)Nc3nc(-c4cn5ccnc5c(CCC(F)(F)C(F)(F)F)n4)nc(N)c32)nc1` (centres unmarked) [Example 248B, 4-amino-5-(5-methoxypyridin-2-yl)-5-methyl-2-(8-(3,3,4,4,4-pentafluorobutyl)imidazo [12-a]pyrazin-6-yl)-5H-pyrrolo[2,3-d]pyrimidin-6(7H)-one]: the Emax amounted to 88% and it took 82 nM to reach a half-maximal effect (EC50).

Regarding `Cc1ccc(C2(C)C(=O)Nc3nc(-c4cn5ccnc5c(CCC(F)(F)C(F)(F)F)n4)nc(N)c32)nn1` (centres unmarked) [Example 252B, 4-amino-5-methyl-5-(6-methylpyridazin-3-yl)-2-(8-(3,3,4,4,4-pentafluorobutyl)imidazo [1,2-a]pyrazin-6-yl)-5H-pyrrolo[2,3-d]pyrimidin-6(7H)-one], the Emax is 121% and the 50% effective concentration (EC50) amounted to 175 nM.
